Source: patent US11103510B2, “JAK1 pathway inhibitors for the treatment of cytokine-related disorders” (Incyte Corporation, priority 2018, dated 2021)

Experiments:
[1] = system: Con A-induced cytokine release syndrome (CRS) in BALB/c mice; test: Concanavalin A induced cytokine release syndrome in BALB/c mice; format: in vivo; settings: plasma 2 h after Con A
Description: Concanavalin A (Con A) is a selective T lymphocyte mitogen resulting in broad inflammatory cytokine release and proliferation of CD4 and CD8 T-cells. Injection of Con-A has been shown in the literature to induce cytokine release syndrome and serves as a model with which to test the efficacy of cytokine release syndrome therapies (Gantner, F. at al. Hepatology, 1995, 21, 190-198). The mitogen response is dependent on expression of the T-cell receptor.
In particular, this study tests the ability of a selective JAK1 inhibitor (e.g., Compound 1, Table 1) to reduce or ameliorate Con A-induced cytokine release syndrome (CRS) in BALB/c mice. A total of forty (40) BALB/c mice were used for this one day study. Animals were weighed prior to test article dosing, and monitored for the duration of the experiment. On day 0, Sixty (60) minutes prior to Con A administration, vehicle (0.5% methylcellulose) or Compound 1 (60 and 120 mg/kg) was given in a single dose via oral gavage (PO) to animals in groups 2-4 as detailed in Table 2A. Group 1 served as naïve controls and were not treated. Following the […] pre-treatment with vehicle or Compound 1, animals in Groups 2-4 were administered 20 mg/kg of Con A via intravenous injection (IV) in order to induce CRS. All animals were euthanized via CO2 inhalation two hours after Con A administration. Whole blood was collected via cardiac puncture into K2EDTA tubes and stored on ice until plasma processing occurs. Plasma was collected and stored at −80° C. until cytokine multiplex was performed.
Animals were weighed and Con-A dose (20 mg/kg) calculated.
Vehicle and Compound 1 were prepared at corresponding doses.
On day 0, animals were dosed with vehicle or Compound 1, as in Table 2A. Group 1 served as the naïve controls and were not treated. Group 2 received a single dose of vehicle (0.5% methylcellulose) via PO at 0.1 mL/20 g. Group 3 received a single dose of 60 mg/kg Compound 1 via PO at 0.1 mL/20 g. Group 4 received a single dose of 120 mg/kg Compound 1 via PO at 0.1 mL/20 g.
Sixty (60) minutes after test article administration, Con-A was administered via IV injection to Groups 2-4. Each animal in Groups 2-4 received 20 mg/kg of Con-A in 0.2 mL.
After the administration of Con-A, animals were closely monitored for signs of distress due to the resulting systemic inflammatory response.
Two hours after Con-A administration all animals were euthanized by CO2 inhalation.
Upon sacrifice, whole blood was collected from each animal via cardiac puncture into K2EDTA tubes. The blood was centrifuged and the plasma collected in cryovials. The plasma was frozen and stored at −80° C. for the downstream cytokine multiplex assay.
Plasma samples are thawed on ice and used for a cytokine multiplex according to the manufacturer's protocol (ThermoFisher).
An unpaired one-way analysis of variance (ANOVA) incorporating Sidak's multiple test comparison was performed using GraphPad Prism (version 4.00; GraphPad Software, San Diego Calif., USA). A value of p<0.05 was considered significant.

[2] = system: anti-CD3 antibody-induced cytokine release syndrome (CRS) in BALB/c mice; test: Anti-CD3 antibody-induced cytokine release syndrome in BALB/c mice; format: in vivo; settings: 60 and 120 mg/kg PO 1 h before anti-CD3 (10 μg IV); plasma 1.5 h after anti-CD3; FIG. 1
Description: JAK1 pathway inhibitors can be tested for efficacy against CRS according to an in vivo assay described in Ferran, C. et al. Clin. Exp. Immunol. 1991, 86, 537-543. Specifically, this study can test the ability of a compound to reduce or ameliorate anti-CD3 antibody-induced cytokine release syndrome (CRS) in BALB/c mice. The antibody, clone 145-2C11, is an immunoglobin G (IgG) hamster MoAb that is specific for the ε chain of the CD3 murine molecule (Léo, O. et al., Proc. Natl. Acad. Sci. USA, 1987, […], 1374). Treatment with 145-2C11 induces high affinity IL-2 receptors at the surface of spleen T-cells and results in a release of some cytokines such as tumor necrosis factor (TNF-α), IL-2, IL-3, IL-6, and interferon-gamma (IFN-γ) (Ferran, et al. Eur. J. Immunol. 1990, 20, 509-515 and Algre, M. et al., Eur. J. Immunol., 1990, 707). […]
The main objective of this study was to test the ability of a JAK1 pathway inhibitor (e.g., Compound 1) to reduce or ameliorate anti-CD3 antibody-induced cytokine release syndrome (CRS) in BALB/c mice. […] Animals were weighed prior to test article dosing, and monitored for the duration of the experiment. […]
After the administration of the anti-CD3 antibody, animals were closely monitored for signs of distress due to the resulting systemic inflammatory response. […]

[3] = target: human JAK2 (a.a. 828-1132) (Homo sapiens (Human), UniProt O60674); test: In vitro JAK kinase assay (HTRF), JAK2, for JAK2/JAK1 ratio; format: biochemical; settings: IC50 ratio, 1 mM ATP
human JAK2 (a.a. 828-1132), sequence (O60674 828-1132): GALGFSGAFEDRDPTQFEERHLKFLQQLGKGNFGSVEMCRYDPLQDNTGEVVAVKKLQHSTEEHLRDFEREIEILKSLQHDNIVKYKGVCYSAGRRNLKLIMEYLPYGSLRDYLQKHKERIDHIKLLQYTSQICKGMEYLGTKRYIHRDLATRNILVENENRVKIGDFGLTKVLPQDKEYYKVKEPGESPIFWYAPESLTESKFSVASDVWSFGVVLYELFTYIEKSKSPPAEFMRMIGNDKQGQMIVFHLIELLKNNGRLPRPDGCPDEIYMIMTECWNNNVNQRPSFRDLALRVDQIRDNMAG
Description: (§1) The catalytic activity of JAK1, JAK2 or JAK3 was assayed by measuring the phosphorylation of a biotinylated peptide. The phosphorylated peptide was detected by homogenous time resolved fluorescence (HTRF). […] Reactions are carried out at room temperature for 1 hour and then stopped with 20 μL 45 mM EDTA, 300 nM SA-APC, 6 nM Eu-Py20 in assay buffer (Perkin Elmer, Boston, Mass.). Binding to the Europium labeled antibody takes place for 40 minutes and HTRF signal was measured on a Fusion plate reader (Perkin Elmer, Boston, Mass.).

[4] = target: human JAK1 (a.a. 837-1142) (Homo sapiens, UniProt P23458); test: In vitro JAK kinase assay (HTRF), JAK1; format: biochemical; settings: 1 mM ATP
Description: as §1

N#CCC1(n2cc(-c3ncnc4[nH]ccc34)cn2)CN(C2CCN(C(=O)c3ccnc(C(F)(F)F)c3F)CC2)C1 [Compound 1, {1-{1-[3-Fluoro-2-(trifluoromethyl)isonicotinoyl]piperidin-4-yl}-3-[4-(7H-pyrrolo[2,3-d]pyrimidin-4-yl)-1H-pyrazol-1-yl]azetidin-3-yl}acetonitrile]
IL-6 concentrations within the blood compartment ([1]; 60 and 120 mg/kg PO 60 min before Con A (20 mg/kg IV), FIG. 2A): dose-dependently inhibited | IFNγ (T-cell derived cytokine) ([1]; 60 and 120 mg/kg PO before Con A, FIG. 2B): significantly inhibited | GM-CSF (T-cell derived cytokine) ([1]; 60 and 120 mg/kg PO before Con A, FIG. 2C): significantly inhibited | IL-12 (monocyte and/or macrophage derived cytokine) ([1]; 60 and 120 mg/kg PO before Con A, FIG. 3A): Statistically significant dose-dependent IL-12 reduction | IL-1β (monocyte and/or macrophage derived cytokine) ([1]; 60 and 120 mg/kg PO before Con A, FIG. 3B): trends for treatment effect | IL-18 (monocyte and/or macrophage derived cytokine) ([1]; 60 and 120 mg/kg PO before Con A, FIG. 3C): trends for treatment effect | IL-5 ([1]; 60 and 120 mg/kg PO before Con A, FIG. 4): unaffected | IL-6 concentrations within the blood compartment [2]: dose-dependently inhibited | JAK2/JAK1 [3]: >10 | IC50 [4]: < 0.01 µM
